Data taken from patent publication US11999720B2, “Pyrazolylacylpyrazoline compounds and method for treating pain” (THE TRUSTEES OF INDIANA UNIVERSITY, priority 2018, dated 2024).
Entries after “also recorded” stand apart in the source; their conditions may differ. Where two headings read alike, the source gives them in different places.

Legend:
[1] = biological target: T1, CaVα1CaVβ3 interaction (Rattus norvegicus, UniProt P54287); assay: fluorescence polarization assay, inhibition constant; assay type: binding; conditions: for Ki: fluorescence polarization assay
T1 construct: made in house; host or cells: E. coli BL21(DE3)
Method: The plasmid of pET28a-CaV2.2β3 subunit was transformed into competent E. Coli BL21(DE3) strain. Culture was grown in LB medium at 37° C. to an OD600 of approximately 0.6 and then induced with 0.5 mM IPTG at 16° C. for 16 h. Cells were collected by centrifugation and lysed by microfluidizer in lysis buffer (phosphate buffer, pH 7.6, 2 mM DTT). The His-CaVβ3 protein was purified at 4° C. using Ni-IMAC chromatography (His-Trap HP, GE Healthcare) and eluted with 500 mM imidazole in lysis buffer with a gradient method. After the fractions consisted of His-CaVβ3 was combined and concentrated, the protein was further purified using size exclusion chromatography (Superdex 200 pg, GE Healthcare) in PBS with 2 mM DTT.
Compound 6 forms a salt bridge interaction with Arg-307 through a benzoic acid moiety. […] Arg-307 was mutated to alanine.

[2] = test system: T2, CaV2.2 channels in HEK-CaV2.2 cells (Rattus norvegicus); assay: whole cell patch-clamp, CaV2.2 currents in HEK-CaV2.2 cells; assay type: cell-based
T2 construct: expressed in transfected cells
Method: The G-V curves are shown.
HEK-CaV2.2 cells were pretreated with various concentrations of compound 14 for 48 hours. CaV2.2 currents were acquired during 20-ms depolarizing pulses, and the current densities were calculated as a ratio of the peak current amplitude and each cell capacitance (0.1 μM, n=6; 1 μM, n=7; 10 μM, n=8; 50 μM, n=12). The line is the fit of the data to the four-parameter logistic function.
EK-CaV2.2 cells were pretreated with the indicated compounds for 48 hours. *** corresponds to […].
FIGS. 8 and 9 show the effects of 2 and 14 on the voltage dependence of activation of CaV2.2 channels in HEK-CaV2.2 cells pretreated with the vehicle or the indicated compounds for 48 hours. […] The gray vertical lines are the error bars (S.E.M.).
FIGS. 10 and 11 show acute effects of DMSO and 14 on the voltage dependence of activation of CaV2.2 channels in HEK-CaV2.2 cells. […] The gray vertical lines are the error bars (S.E.M.). “ns”—stands for not significant.
The whole cell patch-clamp technique was used to record CaV2.2 currents in HEK-CaV2.2 cells and rat DRG neurons. HEK293 cells that stably expressed rat N-type CaV2.2α1B, rat CaVβ3, and rat […] were utilized. Cells were grown in Dulbecco's modified Eagle's medium (DMEM) supplemented with 10% FBS, 50 units penicillin, 50 μg/ml streptomycin, 5 μg/ml blasticidin, 5 μg/ml hydromycin and 25 μg/ml zeozin at 37° C. in a humidified atmosphere of 95% air and 5% CO2. For patch clamp experiments, HEK-CaV2.2 cells were plated on glass coverslips and were cultured for 24-48 h. All animal procedures were performed in accordance to the NIH guide and were approved by the Indiana University School of Medicine Institutional Animal Care and Use Committee. Young adult Sprague Dawley rats were anesthetized (3% isoflurane) and then decapitated. The spinal column was removed, cut open, and dorsal root ganglia were harvested from the Lumbar L4-L6 vertebral levels. The ganglia were incubated in DMEM containing collagenase (1 mg/ml, Worthington: LS04194) and protease (1 mg/ml, Worthington: LS02104) for 30-60 minutes, and DRG neurons were dissociated by triturating in DMEM supplemented with 10% FBS. The isolated DRG neurons were plated on glass coverslips coated with growth factor reduced Matrigel (Thermo Fisher Scientific, Waltham, MA) and were cultured in Eagle's minimum essential medium (Invitrogen, CA) supplemented with 0.2% BSA and 20 ng/ml NGF-2.5S (BD Biosciences, Bedford, MA) at 37° C. in a water-jacketed 5% CO2 incubator overnight for the patch-clamp experiments.

[3] = test system: tibial nerve injury (TNI) model of neuropathic pain; assay: tibial nerve injury (TNI) model of neuropathic pain, von Frey withdrawal threshold; assay type: in vivo, rat
Method: Pathogen-free, adult, female Sprague Dawley (weight at testing 150-200 g; Harlan-Sprague-Dawley, Indianapolis, IN) were housed in a climate-controlled room on a 12-hour light/dark cycle and were allowed to have food and water ad libitum. All procedures were approved by the Indiana University Animal Care and Use Committee and conformed to the guidelines of the National Institutes of Health (publication no. 80-23, 1966) for the use of laboratory animals. All behavioral experiments were conducted by experimenters blinded to the treatment conditions and compound identity. The experiments were replicated a minimum of 2 times with independent cohorts of animals.
For in vivo studies, the inventive compounds were freshly prepared saline (0.9%) on the day of the experiment. Morphine sulfate salt (Sigma-Aldrich, St. Louis, MO) was freshly prepared on the day of the experiment in saline. […]
The inventive compounds were assessed with the tibial nerve injury (TNI) model of neuropathic pain 28 days after surgery. Using isoflurane anesthesia (4% induction and 2% maintenance), the right sciatic nerve was isolated under aseptic surgical conditions by blunt dissection of the femoral biceps muscle and the tibial nerve was tightly ligated with 5-0 silk and transected distal to the ligation. Additional 2 to 3 mm of distal nerve stump was removed to prevent reinnervation by the proximal nerve. The overlying muscle and skin was then sutured in 2 separate layers. Sham-injured animals were subjected to all preceding procedures with the exception of ligation and transection. All animals were returned to the housing facility and allowed to survive for 28 d. Mechanical stimuli were applied with 7 filaments, each differing in the bending force delivered (10, 20, 40, 60, 80, 100, and 120 mN), and fitted with a flat tip and fixed diameter of 0.2 mm. The filaments were tested in the order of ascending force, with each filament delivered for 1 second. Withdrawal threshold was determined by sequentially increasing and analyzed with Hill equation was fitted to the function (Origin version 6.0; Microcal Software) relating the percentage of indentations eliciting a withdrawal to the force of indentation.

[4] = pharmacokinetics, plasma concentrations by LC-MS/MS after IV and PO administration; assay type: in vivo, Kunming mice; conditions: Kunming, mouse; for half-life: read-out: elimination half-life (converted); for Cmax: read-out: Cmax peak plasma concentration
Method: Plasma concentrations at various time points were determined using liquid chromatography tandem mass spectroscopy (LC-MS/MS). For intravenous (IV) administration, compound 14 was formulated as a solution at a final dose of 1 mg/kg.
For oral gavage (PO) administration, compound 14 was formulated as a solution at a final dose of 10 mg/kg. Plasma concentrations at various time points were determined using LC-MS/MS.
PK profiles of compound 14 after intravenous and oral administration was performed in Kunming mice. Plasma concentrations were determined by liquid chromatography tandem mass spectroscopy. Summary of PK properties and plasma concentration measured 1 hour after intravenous or oral administration of 1 or 10 mg/kg compound 14.

T2 sequence (P54287 whole entry): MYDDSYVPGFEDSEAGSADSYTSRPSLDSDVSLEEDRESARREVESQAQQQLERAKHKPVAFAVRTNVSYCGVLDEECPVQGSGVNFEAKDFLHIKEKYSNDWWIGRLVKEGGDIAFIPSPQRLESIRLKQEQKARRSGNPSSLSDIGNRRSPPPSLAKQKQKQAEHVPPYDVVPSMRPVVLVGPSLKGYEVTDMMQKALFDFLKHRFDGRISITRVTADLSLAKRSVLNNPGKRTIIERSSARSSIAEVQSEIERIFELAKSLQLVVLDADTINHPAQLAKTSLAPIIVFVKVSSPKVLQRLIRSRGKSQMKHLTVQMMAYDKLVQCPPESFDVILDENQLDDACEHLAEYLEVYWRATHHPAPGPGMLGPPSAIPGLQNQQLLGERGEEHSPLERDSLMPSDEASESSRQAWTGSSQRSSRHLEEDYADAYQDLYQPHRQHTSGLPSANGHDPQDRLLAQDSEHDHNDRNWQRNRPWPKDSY
T1 sequence (P54287 whole entry): as above

COc1ccc(C2=NN(C(=O)CCC(=O)O)C(c3cn(-c4ccccc4)nc3-c3ccc(C)cc3)C2)cc1 (centres unmarked) [Compound 1]
Ki [1]: 6.7 ± 0.3 µM

Cc1ccc(-c2nn(-c3ccccc3)cc2C2CC(c3ccc(-c4ccccn4)cc3)=NN2C(=O)CCC(=O)O)cc1 (centres unmarked) [Compound 4, 4-oxo-4-(1′-phenyl-5-(4-(pyridin-2-yl)phenyl)-3′-(p-tolyl)-3,4-dihydro-1′H,2H-[3,4′-bipyrazol]-2-yl)butanoic acid]
Ki [1]: 2.2 ± 0.3 µM

COC(=O)c1cccc(C(=O)N2N=C(c3ccc(OC)cc3)CC2c2cn(-c3ccccc3)nc2-c2ccc(C)cc2)c1 (centres unmarked) [Compound 7, methyl 3-(5-(4-methoxyphenyl)-1′-phenyl-3′-(p-tolyl)-3,4-dihydro-1′H,2H-[3,4′-bipyrazole]-2-carbonyl)benzoate]
inhibition of the CaVα1CaVβ3 interaction ([1]; removal of the charge of the benzoic acid moiety): complete loss of inhibition

COc1ccc(C2=NN(C(=O)c3cccc(C(=O)O)c3)C(c3cn(-c4ccccc4)nc3-c3ccc(Cl)cc3)C2)cc1 (centres unmarked) [Compound 8, 3-(3′-(4-chlorophenyl)-5-(4-methoxyphenyl)-1′-phenyl-3,4-dihydro-1′H,2H-[3,4′-bipyrazole]-2-carbonyl)benzoic acid]
Ki [1]: 1.2 ± 0.1 µM

COc1ccc(C2=NN(C(=O)c3cccc(C(=O)O)c3)C(c3cn(-c4ccc(OC)cc4)nc3-c3ccc(C)cc3)C2)cc1 (centres unmarked) [Compound 10, 3-(1′,5-bis(4-methoxyphenyl)-3′-(p-tolyl)-3,4-dihydro-1′H,2H-[3,4′-bipyrazole]-2-carbonyl)benzoic acid]
Ki [1]: 3.7 ± 0.2 µM

COc1ccc(C2=NN(c3cccc(C(=O)O)c3)C(c3cn(-c4ccccc4)nc3-c3ccc(C)cc3)C2)cc1 (centres unmarked) [Compound 11, 3-(5-(4-methoxyphenyl)-1′-phenyl-3′-(p-tolyl)-3,4-dihydro-1′H,2H-[3,4′-bipyrazol]-2-yl)benzoic acid]
Ki [1]: 3.9 ± 0.9 µM

COc1ccc(C2=NN(C(=O)c3cccc(C(=O)O)c3)C(c3cn(-c4cccnc4)nc3-c3ccc(C)cc3)C2)cc1 (centres unmarked) [Compound 12, 3-(5-(4-methoxyphenyl)-1′-(pyridin-3-yl)-3′-(p-tolyl)-3,4-dihydro-1′H,2H-[3,4′-bipyrazole]-2-carbonyl)benzoic acid]
Ki [1]: 5 ± 1.9 µM

COc1ccc(C2=NN(C(=O)c3cccc(-c4nnn[nH]4)c3)C(c3cn(-c4ccccc4)nc3-c3ccc(C)cc3)C2)cc1 (centres unmarked) [Compound 14, (3-(1H-tetrazol-5-yl)phenyl)(5-(4-methoxyphenyl)-1′-phenyl-3′-(p-tolyl)-3,4-dihydro-1′H,2H-[3,4′-bipyrazol]-2-yl)methanone]
steady-state inactivation V0.5, inact ([2]; 50 μM, pretreated 48 hours): −52.9±1.3 mV | IC50 ([2]; pretreated 48 hours, current densities, four-parameter logistic fit, read-out: apparent IC50 for inhibition of CaV2.2 currents): 31 µM | mean half-activation potential V0.5, act ([2]; pretreated 48 hours, DMSO 8.7±1.1): 16.5±1.1 mV | reversal of mechanical hypersensitivity (PWT) ([3]; 0.1 mg/kg single bolus, 1 and 24 h post-dosing, 4 weeks after TNI): significantly reversed mechanical hypersensitivity at both 1 and 24 h post-dosing; also recorded: significantly increased PWTs at both 1 and 24 hours post-injection | Ki [1]: 2 ± 0.2 µM | half-life ([4]; IV, 1 mg/kg): 17.4 min | AUC(0-t) ([4]; iv, 1 mg/kg): 58 ng·h/mL | Tmax ([4]; iv, 1 mg/kg): 4.98 min | Cmax ([4]; iv, 1 mg/kg): 181 ng/mL | AUC(0-t) ([4]; oral gavage (PO), 10 mg/kg): 636 ng·h/mL | Tmax ([4]; oral gavage (PO), 10 mg/kg): 60 min | Cmax ([4]; oral gavage (PO), 10 mg/kg): 165 ng/mL | half-life ([4]; oral gavage (PO), 10 mg/kg): 119 min

COc1ccc(C2=NN(C(=O)c3cccc(C(=O)O)c3)C(c3cn(-c4ccccc4)nc3-c3ccc(-c4ncc[nH]4)cc3)C2)cc1 (centres unmarked) [Compound 15, 3-(3′-(4-(1H-imidazol-2-yl)phenyl)-5-(4-methoxyphenyl)-1′-phenyl-3,4-dihydro-1′H,2H-[3,4′-bipyrazole]-2-carbonyl)benzoic acid]
half-activation voltage V0.5, act after acute treatment ([2]; 50 μM, 5 min incubation, before 6.4±1.9): 11.4±1.7 mV | density of CaV2.2 currents ([2]; 50 μM, pretreated 48 hours, depolarizing pulses to 0 mV from holding potential −80 mV, DMSO −74.8±7.0): −11.1±2.4 pA/pF

CN1CC[C@]23c4c5ccc(O)c4O[C@H]2[C@@H](O)C=C[C@H]3[C@H]1C5.O=S(=O)(O)O [morphine, Morphine sulfate salt, reference compound]
withdrawal threshold to von Frey stimulation ([3]; 5 mg/kg systemic, 28 days after TNI): 32±2.6 mN
